According to ChEMBL document CHEMBL1136641, “Anastatins A and B, new skeletal flavonoids with hepatoprotective activities from the desert plant Anastatica hierochuntica” (2003):

What was measured:
Mus musculus [1] = species on record: Mus musculus; experiment: Inhibitory activity derived from Anastatica hierochuntica on D-Gal-induced cytotoxicity in primary cultured mouse hepatocytes at a concentration of 30 uM; assay type: functional; conditions: Hepatocyte
Mus musculus [2] = species on record: Mus musculus; experiment: Inhibitory activity derived from Anastatica hierochuntica on D-Gal-induced cytotoxicity in primary cultured mouse hepatocytes at a concentration of 3 uM; assay type: functional; conditions: Hepatocyte
Mus musculus [3] = species on record: Mus musculus; experiment: Inhibitory activity derived from Anastatica hierochuntica on D-Gal-induced cytotoxicity in primary cultured mouse hepatocytes at a concentration of 0 uM; assay type: functional, Hepatocyte
Mus musculus [4] = species on record: Mus musculus; experiment: Inhibitory activity derived from Anastatica hierochuntica on D-Gal-induced cytotoxicity in primary cultured mouse hepatocytes at a concentration of 10 uM; assay type: functional; conditions: Hepatocyte

SMILES	inhibition at 30 µM (Mus musculus [1]) [%]	inhibition at 3 µM (Mus musculus [2]) [%]	Inhibition (Mus musculus [3]) [%]	inhibition at 10 µM (Mus musculus [4]) [%]
COc1cc([C@H]2Oc3cc(O)cc(O)c3C(=O)[C@@H]2O)ccc1O	36.7	4	0	7.3
O=C1c2c(O)cc(O)cc2O[C@@H](c2ccc(O)c(O)c2)[C@H]1O [(+)-EPITAXIFOLIN]	21.7	2.1	0	11
O=C1c2c(O)cc(O)cc2O[C@H](c2ccc(O)c(O)c2)[C@H]1O [(+)-TAXIFOLIN]	13	9.6	0	11.7
O=C1C[C@@H](c2ccc(O)cc2)Oc2cc3oc4cc(O)c(O)cc4c3c(O)c21 [ANASTATIN A]	46.2	17.2	0	31.5
O=C1C[C@@H](c2ccc(O)cc2)Oc2c1c(O)cc1oc3cc(O)c(O)cc3c21 [ANASTATIN B]	55	28.6	0	40.5
O=C1c2c(O)cc(O)cc2O[C@H](c2ccc(O)cc2)[C@H]1O [DIHYDROKAEMPFEROL]	33.2	7.8	0	14.2
O=C1C[C@@H](c2ccc(O)c(O)c2)Oc2cc(O)cc(O)c21 [ERIODICTYOL]	27.3	5.9	0	8.3
O=C1C[C@@H](c2ccc(O)cc2)Oc2cc(O)cc(O)c21 [NARINGENIN]	43.1	2.9	0	9.3
COc1cc(C2Oc3cc([C@H]4Oc5cc(O)cc(O)c5C(=O)[C@@H]4O)ccc3OC2CO)ccc1O (stereo partly specified) [SILIBININ]	45.2	4.8	0	7.7
